Patent publication US20050075282A1, “Materials and methods for inhibiting the development of epilepsy” (priority 2003, published 2005)
pEC50, pIC50, pKi: −log10 of the molar value. “And” between values parts separate entries of the source, which are not always exact repeats. Identical values can stand only once.

Assays:
HDAC [1] = details: HDAC inhibitors in rats; cited from earlier work
HDAC [2] = details: cited from earlier work; for pIC50: read-out: IC50 (HDAC inhibition)
HDAC (293T cells) = test system: T1, HDAC (293T cells); details: 293T cells-HDAC assay; reference 6; cited from earlier work
T1 construct: IC50; other: 293T cells-HDAC assay

[3] = target: purified nuclear histone deacetylase; details: Calf thymus, reference 2; cited from earlier work
NMDAR = experiment: Whole cell voltage clamp of isolated DGCs, response to NMDA, after in vivo HDAC inhibitor treatment; design: species or system rats; details: for increase of DGC NMDAR current densities in control rats: treated control vs control (VPA) or control+vehicle (TSA)
AMPAR = experiment: Whole cell voltage clamp of isolated DGCs, response to kainate + cyclothiazide, after in vivo HDAC inhibitor treatment; design: species or system rats
GABAR = experiment: Whole cell voltage clamp of isolated dentate granule cells (DGCs), response to GABA, after in vivo HDAC inhibitor treatment; design: species or system rats
[4] = test system: rats post pilocarpine-induced status epilepticus; experiment: Chronic epilepsy monitoring (video) after pilocarpine-induced SE; format: in vivo; details: TSA injected three times, 2 hr, 6 hr and 24 hr post SE; seven weeks monitoring; vs vehicle
Method: Trichostatin A (TSA) administration. TSA was administered in the lateral ventricle {−0.8 mm A-P; 1.5 LAT; 3.2 DOWN (Paxinos and Watson 1982)} one hour prior to pilocarpine injection to induce SE. The cannula guide had been previously implanted using stereotaxic surgery two weeks prior to experiment to allow animals properly recovery. TSA (5 μl) was delivered via tubing connected to a pump at a concentration of 5 μg/ml (vehicle, 0.9% saline) at a rate of 1 μl/min for 5 minutes through 29-gauge tubing attached to the cannula. Successful delivery of TSA was verified by histological examination of cannula position and a moving mark inside the tubing. In additional studies (FIGS. 5 and 6), TSA was administered I.P., 2, 6, and 24 hrs post SE.
Pilocarpine-induced status epilepticus. Rats were injected with (−) scopolamine methyl nitrate (1 mg/kg body weight, s.c.) 30 min prior to pilocarpine hydrochloride (405 mg/kg body weight, s.c.). Controls received a sub-convulsive dosage of pilocarpine (40 mg/kg, s.c.). After one hour of SE, diazepam was used to stop SE.
Chronic epilepsy monitoring in TSA treatment. […] This effect lasted for at least 5-7 days, during which time animals had no behavioral seizures (latent period). Animals sequentially developed spontaneous seizures (epilepsy). […] Animals were video monitored for 7 weeks post SE, and the frequency and severity of seizures was quantified.

[5] = test system: HeLa cell nuclear extract HDACs; details: Enhances histone acetylation in HeLa cell nuclear extract; reference 4; cited from earlier work
[6] = DGCs 1 Wk post SE, TSA in the lateral ventricle
[7] = control rats, TSA in the lateral ventricle
[8] = control rats, VPA in drinking water
[9] = DGCs 1 Wk post SE, VPA study (FIG. 2B)

## CCCC(=O)[O-].[Na+] [Sodium Butyrate, Sodium butyrate]
HDAC [1]
  pEC50: 3.30 to 3.70
HDAC [2]
  pIC50: 2.82
HDAC (293T cells)
  pIC50: 3.40 to 3.52
[3]
  pIC50: 3.60

## CC(/C=C/C(=O)NO)=C\[C@@H](C)C(=O)c1ccc(N(C)C)cc1 [TSA, Trichostatin A]
HDAC [1]
  pEC50: 6.30 to 7.30
HDAC [2]; in vitro
  IC50 / working range (HDAC inhibition): nM affinity range
NMDAR; DGCs 1 Wk post SE, TSA i.p. post SE (FIG. 6)
  effect on NMDAR current density: no significant effect
NMDAR; [6]
  NMDAR Charge transfer density: 153.7 ± 16.6 (n = 31) (msec) × (nA)/(pF)
  NMDAR Current density: 117.3±16.0 pA/pF and 117.3 ± 16.0 (n = 31) pA/pF
  NMDAR Desensitization %: 38.5 ± 3.5 (n = 31) %
  NMDAR Desensitization tau: 1222.1 ± 173.8 (n = 28) msec
NMDAR; [7]
  NMDAR Charge transfer density: 196.2 ± 14.4 (n = 39) (msec) × (nA)/(pF)
  NMDAR Desensitization %: 27.1 ± 2.2 (n = 39) %
  NMDAR Desensitization tau: 1262.6 ± 197.5 (n = 37) msec
NMDAR; control rats, TSA in the lateral ventricle, NMDA 100 μM, Mg-free
  NMDAR Current density: 121.0±9.0 pA/pF and 121.0 ± 9.0 (n = 39) pA/pF
NMDAR
  increase of DGC NMDAR current densities in control rats: 83.1%
AMPAR; Control+TSA vs Control+vehicle
  increase of AMPAR current densities in control rats: 43.8%
AMPAR; DGCs 1 Wk post SE
  effect on reduced AMPAR function / current densities: totally prevented
AMPAR; [6]
  AMPAR Charge transfer density: 703.3 ± 49.9 (n = 33) (msec) × (nA)/(pF)
AMPAR; [7]
  AMPAR Charge transfer density: 907.6 ± 57.7 (n = 41) (msec) × (nA)/(pF)
GABAR; DGCs 1 Wk post SE, 1-hr post SE TSA i.p. injection (FIG. 6)
  GABAR Current density: 235.1±62.3 pA/pF
GABAR; [6]
  GABAR Charge transfer density: 185.9 ± 18.4 (n = 30) (msec) × (nA)/(pF)
  GABAR Desensitization %: 83.1 ± 2.0 (n = 30) %
GABAR; DGCs 1 Wk post SE, TSA in the lateral ventricle one hour prior to pilocarpine, GABA 1 mM
  GABAR Current density: 225.6±17.3 pA/pF and 225.6 ± 17.3 (n = 32) pA/pF
GABAR; [7]
  GABAR Charge transfer density: 169.7 ± 14.2 (n = 37) (msec) × (nA)/(pF)
  GABAR Desensitization %: 83.8 ± 1.5 (n = 36) %
GABAR; control rats, TSA in the lateral ventricle, GABA 1 mM
  GABAR Current density: 217.9±12.8 pA/pF and 217.9 ± 12.8 (n = 36) pA/pF
[4]
  reduction of average spontaneous seizure frequency: more than 70%

## CCCC(CCC)C(=O)[O-].[Na+] [VPA, 2-propyl-pentanoic acid-sodium salt]
HDAC [1]
  pEC50: 3.15 to 3.52
HDAC [2]
  pIC50: 3.40
[5]
  pKi: 3.29
NMDAR; DGCs 1 Wk post SE
  NMDAR Desensitization %: 43.9 ± 2.7 (n = 61) %
  NMDAR Desensitization tau: 768.6 ± 51.1 (n = 51) Msec
NMDAR; DGCs 1 Wk post SE, NMDA 100 μM, Mg-free
  NMDAR Current density: 74.0 ± 9.5 (n = 62) Pa/pF
NMDAR; control rats + VPA (FIG. 4)
  NMDAR current densities: 102.1±17.5 pA/pF
NMDAR; [8]
  NMDAR Charge transfer density: 123.2 ± 18.0 (n = 25) (msec) × (nA)/(pF)
  NMDAR Desensitization %: 35.6 ± 4.6 (n = 25) %
  NMDAR Desensitization tau: 669.8 ± 77.3 (n = 21) Msec
NMDAR
  increase of DGC NMDAR current densities in control rats: 49.9%
HDAC (293T cells)
  pIC50: 3.00 to 3.15
AMPAR; DGCs 1 Wk post SE
  AMPAR Charge transfer density: 459.8 ± 30.8 (n = 66) (msec) × (nA)/(pF)
  effect on reduced AMPAR function / current densities: partially restore
AMPAR; [8]
  AMPAR Charge transfer density: 780.4 ± 53.3 (n = 26) (msec) × (nA)/(pF)
GABAR; DGCs 1 Wk post SE
  GABAR Charge transfer density: 217.0 ± 16.4 (n = 73) (msec) × (nA)/(pF)
  GABAR Desensitization %: 76.5 ± 2.1 (n = 73) %
GABAR; [9]
  GABAR current densities: 234.6±12.7 pA/pF
GABAR; DGCs 1 Wk post SE, GABA 1 mM
  GABAR Current density: 234.6 ± 12.7 (n = 74) Pa/pF
GABAR; control rats + VPA (FIG. 2B)
  GABAR current densities: 243.04±19.25 pA/pF
GABAR; [8]
  GABAR Charge transfer density: 239.8 ± 27.8 (n = 22) (msec) × (nA)/(pF)
GABAR; control rats, VPA in drinking water 1.0 g/kg daily, GABA 1 mM
  GABAR Current density: 243.0 ± 19.3 (n = 22) Pa/pF
GABAR; control rats, VPA in drinking water, 2-second agonist application
  GABAR Desensitization %: 70.3 ± 4.2 (n = 22) %

## CCCC(CCC)C(N)=O [VPM, valpromide]
NMDAR; DGCs 1 Wk post SE
  NMDAR Charge transfer density: 180.0 ± 22.4 (n = 26) (msec) × (nA)/(pF)
  NMDAR Desensitization %: 46.7 ± 4.5 (n = 25) %
  NMDAR Desensitization tau: 787.8 ± 131.5 (n = 23) Msec
NMDAR; DGCs 1 Wk post SE, VPA study (FIG. 4)
  NMDAR current densities: 141.1±17.3 pA/pF
AMPAR; DGCs 1 Wk post SE
  AMPAR Charge transfer density: 615.3 ± 42.3 (n = 27) (msec) × (nA)/(pF)
AMPAR; DGCs 1 Wk post SE, VPA study (FIG. 3)
  AMPAR current densities: 302.5±20.2 pA/pF
GABAR; DGCs 1 Wk post SE
  GABAR Charge transfer density: 249.5 ± 41.5 (n = 26) (msec) × (nA)/(pF)
  GABAR Desensitization %: 77.3 ± 2.7 (n = 27) %
GABAR; [9]
  GABAR current densities: 218.63±33.2 pA/pF
GABAR; DGCs 1 Wk post SE, GABA 1 mM
  GABAR Current density: 218.6 ± 33.2 (n = 30) Pa/pF
